This passage reports Sponge results from patent EP0230023B1, “Pharmaceutical compositions for the enhancement of wound healing” (MARION MERRELL DOW INC., priority 1985, dated 1987).

In this test the test system is granulation tissue. Nature of the test: Subcutaneous Ivalon sponge implantation, histological analysis of granulation tissue formation. To be noted: score on the 0-4 scale; tested in a similar manner to collagen/sucrose octasulfate; potassium salts. Format: in vivo, Sprague-Dawley rats. How it is done: By means of subcutaneous implantation of Ivalon sponges the phase of granulation tissue formation in the repair process can be evaluated. Following a vigorous cleanup procedure the sponge material evokes only minimal inflammatory response. Sterile sponges prepared as set forth in Example 12 were injected with a 50 µl suspension of collagen/sucrose octasulfate suspension prepared as in Example 12. […] The sponges were surgically implanted into 350-500 g, male Sprague-Dawley rats. Before the implantation procedure three rats were anesthetized and their dorsal surfaces shaved and wiped with Predodyne (West Chemical Products, Lynbrook, N.Y.). Six 6 mm incisions were cut in groups of two (one on each side of the vertebral column rostrally, centrally and caudally), spaced equi-distant from each other between the pectoral and pelvic girdles on the dorsal surface. At each incision a pocket was made between the panniculus carnosus and the dermis and two sponges inserted into it, one rostrally and the other caudally; a total of 12 sponges were thus implanted in each animal. The position of each test preparation was alternated between the rostral, central and caudal positions to control the variation due to anatomical location. The incisions were closed with 11-mm Michel wound clips (Propper, Long Island City, N.Y.). Seven days following implantation the animals were sacrificed and the sponges surgically removed with their adhered connective tissue capsules. Controls, sponges injected with either PBS or collagen only were treated in a similar manner. In all, approximately 120 sponges per group were used in the study and randomly selected for biochemical and histologic analysis. The sponges were fixed in formalin and embedded in either plastic or Paraplast following dehydration. Sections were stained with hemotocylin and eosin, trichrome, silver or PAS. […] Mesenchymal cell infiltration was also scored on a predetermined scale from 0-4. […] Although the whole sponge area was used for analysis we noted that the most striking differences between the various treatments were evident in the center of the sponge. Therefore, the histologic appearance of the central zone was selected for presentation.

Take `O=S(=O)([O-])OC[C@H]1O[C@@](COS(=O)(=O)[O-])(O[C@H]2O[C@H](COS(=O)(=O)[O-])[C@@H](OS(=O)(=O)[O-])[C@H](OS(=O)(=O)[O-])[C@H]2OS(=O)(=O)[O-])[C@@H](OS(=O)(=O)[O-])[C@@H]1OS(=O)(=O)[O-].[K+].[K+].[K+].[K+].[K+].[K+].[K+].[K+]` [Sucrose Octasulfate, potassium sucrose octasulfate]: the Sponge stood at 4.
